US20130243847A1, “ACTIVATED CREATININE AND PRECURSORS THEREOF AS ANTIBACTERIAL AGENTS, COMPOSITIONS AND PRODUCTS CONTAINING SUCH AGENTS AND USE THEREOF” (BOARD OF REGENTS OF THE UNIVERSITY OF NEBRASKA, priority 2010, published 2013)

Tests used:
Type in all cases: cell-based
[1] = system: Acinetobacter baumannii high level resistance (HLR); assay: Disc diffusion assay, CEE vs gentamicin; conditions: A. baumannii HLR; 50 mg anhydrous topical cream with 28% by weight agent; gentamicin 10 μg disc
Procedure: (§1) This testing involved the use of 50 mg of an anhydrous topical cream containing the antibacterial agent of the invention in an amount of 28% by weight and 10 μg of gentamicin, impregnated into a standard commercially available disc (Remel, Lenoxa Kans.).

[2] = system: Bacillus cereus laboratory strain; assay: Disc diffusion assay, CEE vs gentamicin; conditions: B. cereus laboratory strain; 50 mg anhydrous topical cream with 28% by weight agent
Procedure: as §1

[3] = system: Bacillus subtilis laboratory strain; assay: Disc diffusion assay, CEE vs gentamicin; conditions: B. subtilis laboratory strain; 50 mg anhydrous topical cream with 28% by weight agent
Procedure: as §1

[4] = system: Brevibacterium linens ATCC 9175; assay: Disc diffusion assay, CEE vs gentamicin; conditions: B. linens ATCC 9175; 50 mg anhydrous topical cream with 28% by weight agent
Procedure: as §1

[5] = system: Candida albicans laboratory strain 24433; assay: Disc diffusion assay, CEE vs gentamicin; conditions: C. albicans laboratory strain 24433; 50 mg anhydrous topical cream with 28% by weight agent; gentamicin 10 μg disc
Procedure: as §1

[6] = system: Enterococcus faecalis laboratory strain 29212; assay: Disc diffusion assay, CEE vs gentamicin; conditions: E. faecalis laboratory strain 29212; 50 mg anhydrous topical cream with 28% by weight agent; gentamicin 10 μg disc
Procedure: as §1

[7] = system: Enterococcus faecium vancomycin resistant (VRE); assay: Disc diffusion assay, CEE vs gentamicin; conditions: E. faecium VRE; 50 mg anhydrous topical cream with 28% by weight agent; gentamicin 10 μg disc
Procedure: as §1

[8] = system: Escherichia coli laboratory strain 35150; assay: Disc diffusion assay, CEE vs gentamicin; conditions: E. coli laboratory strain 35150; 50 mg anhydrous topical cream with 28% by weight agent; gentamicin 10 μg disc
Procedure: as §1

[9] = system: Micrococcus luteus laboratory isolate; assay: Disc diffusion assay, CEE vs gentamicin; conditions: M. luteus laboratory isolate; 50 mg anhydrous topical cream with 28% by weight agent
Procedure: as §1

[10] = system: Pseudomonas aeruginosa high level resistance (HLR); assay: Disc diffusion assay, CEE vs gentamicin; conditions: P. aeruginosa HLR; 50 mg anhydrous topical cream with 28% by weight agent; gentamicin 10 μg disc
Procedure: as §1

[11] = system: Pseudomonas aeruginosa laboratory strain 27853; assay: Disc diffusion assay, CEE vs gentamicin; conditions: P. aeruginosa laboratory strain 27853; 50 mg anhydrous topical cream with 28% by weight agent; gentamicin 10 μg disc
Procedure: as §1

[12] = system: Pseudomonas fluorescens laboratory strain; assay: Disc diffusion assay, CEE vs gentamicin; conditions: P. fluorescens laboratory strain; 50 mg anhydrous topical cream with 28% by weight agent
Procedure: as §1

[13] = system: Rhodotorula sp. laboratory isolate; assay: Disc diffusion assay, CEE vs gentamicin; conditions: 50 mg anhydrous topical cream with 28% by weight agent
Procedure: as §1

[14] = system: Saccharomyces sp. isolate from baker's yeast; assay: Disc diffusion assay, CEE vs gentamicin; conditions: 50 mg anhydrous topical cream with 28% by weight agent
Procedure: as §1

[15] = system: Staphylococcus aureus UMSA-1 isolate; assay: Disc diffusion assay, CEE vs gentamicin; conditions: S. aureus UMSA-1 isolate; 50 mg anhydrous topical cream with 28% by weight agent
Procedure: as §1

[16] = system: Staphylococcus aureus laboratory strain 29213; assay: Disc diffusion assay, CEE vs gentamicin; conditions: S. aureus laboratory strain 29213; 50 mg anhydrous topical cream with 28% by weight agent; gentamicin 10 μg disc
Procedure: as §1

[17] = system: Staphylococcus aureus methicillin resistant (MRSA); assay: Disc diffusion assay, CEE vs gentamicin; conditions: S. aureus MRSA; 50 mg anhydrous topical cream with 28% by weight agent; gentamicin 10 μg disc
Procedure: as §1

[18] = system: Staphylococcus epidermidis laboratory strain; assay: Disc diffusion assay, CEE vs gentamicin; conditions: S. epidermidis laboratory strain; 50 mg anhydrous topical cream with 28% by weight agent
Procedure: as §1

[19] = system: Escherichia coli beta lactamase producer (ESBL); conditions: E. coli ESBL; 50 mg anhydrous topical cream with 28% by weight agent; gentamicin 10 μg disc
Procedure: as §1

S. aureus [20] = assay: Disc diffusion assay, different carrier media (Example 2); conditions: 28% by weight agent, approx. 50 μL
Procedure: For purposes of the experiments described below, test compositions were prepared by admixing antibacterially-activated creatinine (CRN) or a precursor of antibacterially-activated CRN, i.e., creatine ethyl ester (CEE), as required for the experiment at hand, with a weighed amount of a suitable carrier medium to give a final concentration of 28% by weight of the antibacterial agent, based on the total weight of the composition.
Antibacterial compositions were prepared following this procedure using a number of different aqueous and non-aqueous (anhydrous) carrier media, and evaluated for antibacterial activity in a standard disc diffusion assay. Thus, approximately 50 μL of each selected carrier containing 28% by weight of either a precursor of antibacterially-activated CRN, CEE, or antibacterially-activated CRN was added to a 6 mm disc and inverted onto a brain heart infusion agar plate that was previously spread with S. aureus at 10^5 organisms per mL. Plates were incubated at 37° C. overnight and the clear zones showing inhibition of bacterial growth were measured.

S. aureus [21] = assay: Growth in Lederberg's broth with CEE at different concentrations (Example 3, FIG. 2A); conditions: inoculum 10^4/mL, 37° C., absorbance over time
Procedure: The CEE precursor of antibacterially-activated CRN was diluted at different concentrations into Lederberg's broth (LB), which was then inoculated to 10^4/mL with S. aureus. The cultures were incubated in capped plastic tubes at 37° C. and aerated by tumbling using a tube rotating device.

S. aureus [22] = assay: Selective growth on LBD, mixture of S. aureus and Rhodotorula sp. (Example 12, FIG. 11B); conditions: 37° C., 36 hours
Procedure: Colonies of S. aureus and Rhodotorula sp. grown on LB agar supplemented with 1% dextrose (LBD) were suspended in PBS to 0.30 A580 nm. An equal volume of the two organisms was combined and the mixture streaked onto wells containing only LBD (None) or LBD supplemented with a precursor of antibacterially-activated CRN, CEE, and incubated at 37° C. for 36 hours.

## CCOC(=O)CN(C)C(=N)N [CEE, creatine ethyl ester]
[1]
  Zone of Inhibition: 16 mm
[2]
  Zone of Inhibition: 22 mm
[3]
  Zone of Inhibition: 20 mm
[4]
  Zone of Inhibition: 40 mm
[5]
  Zone of Inhibition: 0 mm
[6]
  Zone of Inhibition: 19 mm
[7]
  Zone of Inhibition: 18 mm
[8]
  Zone of Inhibition: 15 mm
[9]
  Zone of Inhibition: 22 mm
[10]
  Zone of Inhibition: 25 mm
[11]
  Zone of Inhibition: 27 mm
[12]
  Zone of Inhibition: 18 mm
[13]
  Zone of Inhibition: 0 mm
[14]
  Zone of Inhibition: 0 mm
[15]
  Zone of Inhibition: 24 mm
[16]
  Zone of Inhibition: 26 mm
[17]
  Zone of Inhibition: 27 mm
[18]
  Zone of Inhibition: 27 mm
[19]
  Zone of Inhibition: 19 mm
S. aureus [20]; carrier hydrogel
  Zone of Inhibition: 20 mm
S. aureus [20]; carrier mineral oil
  Zone of Inhibition: 21 mm
S. aureus [20]; carrier pharmaceutical grade Lipoil (lecithin and isopropyl palmitate)
  Zone of Inhibition: 12 mm
S. aureus [20]; carrier pharmaceutical topical formulation (proprietary blend)
  Zone of Inhibition: 26 mm
S. aureus [20]; carrier polyethylene glycol 200
  Zone of Inhibition: 18 mm
S. aureus [20]; carrier polyethylene glycol 400
  Zone of Inhibition: 14 mm
S. aureus [20]; carrier red palm oil
  Zone of Inhibition: 15 mm
S. aureus [20]; carrier water/25% glycerol
  Zone of Inhibition: 15 mm
S. aureus [20]; carrier water/50% glycerol
  Zone of Inhibition: 15 mm
S. aureus [20]; carrier water
  Zone of Inhibition: 9 mm
S. aureus [20]; carrier white palm oil/corn oil (50% ea)
  Zone of Inhibition: 17 mm
S. aureus [20]; carrier white palm oil
  Zone of Inhibition: 12 mm
S. aureus [21]
  concentration that inhibited growth of S. aureus: approximately 32 mM
S. aureus [22]; 100 mM CEE in LBD
  growth of Staphylococcus: retarded
S. aureus [22]; 200 mM CEE and greater in LBD
  growth of Staphylococcus: completely inhibited
